Measured values: patent US20080166323A1, “Activators of Hexosamine Biosynthesis as Inhibitors of Injury Induced by Ischemia or Hermorrhagic Shock” (UAB RESEARCH FOUNDATION, priority 2004, published 2008)
Where a name gives a salt, the structure may show the parent alone.

Experiments:
perfused hearts = test: calcium paradox in perfused hearts (Langendorff); set-up: species or system rat
Description: The effect of short-term hyperglycemia (2-5 days) on the calcium paradox was explored. The protocol (a 30-minute stabilization after hanging the heart on a Langendorff apparatus, a Ca^2+-free buffer for 10 min, a buffer containing 1.25 mM Ca^2+ buffer for 15 min) was initially applied to perfused hearts from control rats. When calcium was removed from the perfusate, the heart gradually ceased beating (FIG. 2A), although no protein loss from the heart was detected (FIG. 3C). […] The decrease in left ventricular […] pressure (LVDP) and an elevation in end diastolic pressure (EDP), as well as protein loss and blanching signaled the transition to a “stone heart” (Zimmerman, Cardiovasc Res (2000) 45(1):119-121) in hearts from all control animals examined.
Azaserine (AZA), the inhibitor of GFAT and HBP flux (Marshall, et al., J Biol Chem (1991) 266(8):4706-4712), negated the effects of hyperglycemia, restoring sensitivity to the paradox in 3 of 7 hearts (FIG. 2B). […] This decreased somewhat the protection seen with hyperglycemia, but made the reversal seen with azaserine more pronounced (FIGS. 2B and 3).
To confirm the involvement of the HBP in the protection due to hyperglycemia, a complementary series of experiments at a final Ca^2+ concentration of 1.25 mM were performed.
An independent mechanism of increasing metabolites in the HBP is to provide the heart with free fatty acids (Hawkins, et al., J Clin Invest (1997) 99(9):2173-2182). This occurs because of the “glucose-sparing” effect, a rapid block on the entry of glucose into the glycolytic pathway because of an inhibition of phosphofructokinase. […] In addition, SKF96365 (also known as 1-[β-[3-(4-methoxyphenyl)propoxy]-4-methoxyphenethyl]-1H-imidazole, HCl; available from Calbiochem, San Diego, Calif.) as an independent means of blocking the channels responsible for CCE was utilized (Putney, Capacitative Calcium Entry (1997) Austin: Landes Biomedical). This too was at least partially effective in 4 of 6 animals (FIG. 4).

hemorrhagic shock = details: in vivo; cited from earlier work
human = details: in vivo; cited from earlier work
[1] = tested on: animal models of ischemia/reperfusion; details: in vivo; cited from earlier work
isolated rat heart = details: administered prior to ischemia or just prior to reperfusion; cited from earlier work
isolated cardiomyocyte = details: cited from earlier work

Compound: CN(N=O)C(=O)N[C@H]1C(O)O[C@H](CO)[C@@H](O)[C@@H]1O (mixture of isomers) [streptozotocin]
- hearts demonstrating almost complete protection in the calcium paradox (perfused hearts; hearts from animals made hyperglycemic by STZ treatment (2-5 days), 10 min Ca2+-free, 1.25 mM Ca2+ readdition): 7 of 7

Compound: [N-]=[N+]=CC(=O)OC[C@H](N)C(=O)O [Azaserine]
- hearts in which sensitivity to the calcium paradox was restored (effects of hyperglycemia negated) (perfused hearts; hearts from STZ hyperglycemic animals treated with azaserine): 3 of 7

Compound: O=C(COP(=O)(O)O)[C@@H](O)[C@H](O)[C@H](O)COP(=O)(O)O [FBP, fructose-1,6-bisphosphate]
- protection in hemorrhagic shock (hemorrhagic shock): protective
- outcomes in human studies (human): improved outcomes
- protection in animal models of ischemia/reperfusion [1]: protective

Compound: COc1ccc(CCCOC(Cn2ccnc2)c2ccc(OC)cc2)cc1 (stereo not drawn) [SKF96365, 1-[β-[3-(4-methoxyphenyl)propoxy]-4-methoxyphenethyl]-1H-imidazole, HCl]
- animals in which treatment was at least partially effective in the calcium paradox (perfused hearts; final Ca2+ 1.25 mM): 4 of 6

Compound: NC(=O)CC[C@H](N)C(=O)O [glutamine]
- protection in cardiac ischemia (isolated rat heart): remarkable protection
- protection in isolated cardiomyocyte model (isolated cardiomyocyte): protective
